From patent publication US9981950B2, “Triazoles as NR2B receptor inhibitors” (Janssen Pharmaceuticals, Inc., priority 2014, dated 2018)

Columns and labels:
hERG-receptor = hERG-receptor (Homo sapiens (Human), UniProt Q12809); test: HERGBD: inhibition of specific 3H-Dofetilide binding to the hERG-receptor; conditions: HEK cell membranes with human ERG, Hill-plot 2-parameter-model
Experimental: Inhibition of Specific Binding to the hERG-Receptor (HERGBD)
A HEK cell line with stable transfected human ERG receptor was used for the assay. The cells were grown adherently and maintained in DULBECCOS' MEM medium with 10% FBS, 1% non-essential amino acids, 1% Penicillin/Streptomycin and 400 μg/ml G418 (Calbiochem).
For binding assays and membrane preparations the cell culture medium was removed, cells were washed with PBS. Crude membranes for radioligand binding experiments were prepared by scraping the cells off the dishes in ice cold 20 mM HEPES/0.1 mM KCl/pH 7.2. The cell suspension was homogenized on ice (Ultra turrax, 3×20 sec.) and the homogenate was spun for 10 min (1° C., 1000 g, OPTIMA, SW28, 2800 U/min). The supernatant was than centrifuged for 40 min at 100000 g (1° C., OPTIMA, SW28, 23000 U/min). The membrane pellet was resuspended in 20 mM HEPES/0.1 mM KCl/pH 7.2, frozen and stored at −80° C.
After thawing on the day of the assay, the membrane suspension was diluted further with 20 mM HEPES/0.1 mM KCl/pH 7.2.
The incubation mixture of 200 μl contained 1.5 nmol/l 3H-Dofetilide, optimized amount of membrane preparation, 20 mM HEPES/0.1 mM KCl/(pH 7.2) and inhibitor in 1% DMSO. Nonspecific binding was estimated in the presence of […] Dofetilide. The samples were incubated for 90 min. at RT.
Binding was terminated by filtration of the incubated membrane preparations using Filtermat B (Pharmacia, Uppsala Sweden) and a Micro Cell Harvester (Skatron, Lier, Norway). The Filtermat B had been presoaked with 1% polyethylenimine and carefully washed with 0.05 M Tris/HCl-buffer pH=7.7 after the filtration to separate free and bound radioactivity. The filters were counted in a scintillation counter (Betaplate 1205, Berthold, Wildbad, Germany) in order to determine the specific binding of [^3H]-Dofetilide.
The optimal amount of membrane preparation in the assay was determined and optimized for each membrane preparation separately in front of using the membranes in compound testing.
For pipetting of the incubation mixture we routinely use the robot Biomek2000 (Fa. Beckman).

rat NR1/NR2B receptor = rat NR1/NR2B receptor (Rattus norvegicus (Rat), UniProt P35439+Q00960); test: RRNR2BB: inhibition of specific binding to the rat NR1/NR2B receptor; conditions: [3H]-Ifenprodil binding, rat brain membranes, Hill-plot 2-parameter-model
Sequence of rat NR1/NR2B receptor (Q00960 27-1482, other chains not shown): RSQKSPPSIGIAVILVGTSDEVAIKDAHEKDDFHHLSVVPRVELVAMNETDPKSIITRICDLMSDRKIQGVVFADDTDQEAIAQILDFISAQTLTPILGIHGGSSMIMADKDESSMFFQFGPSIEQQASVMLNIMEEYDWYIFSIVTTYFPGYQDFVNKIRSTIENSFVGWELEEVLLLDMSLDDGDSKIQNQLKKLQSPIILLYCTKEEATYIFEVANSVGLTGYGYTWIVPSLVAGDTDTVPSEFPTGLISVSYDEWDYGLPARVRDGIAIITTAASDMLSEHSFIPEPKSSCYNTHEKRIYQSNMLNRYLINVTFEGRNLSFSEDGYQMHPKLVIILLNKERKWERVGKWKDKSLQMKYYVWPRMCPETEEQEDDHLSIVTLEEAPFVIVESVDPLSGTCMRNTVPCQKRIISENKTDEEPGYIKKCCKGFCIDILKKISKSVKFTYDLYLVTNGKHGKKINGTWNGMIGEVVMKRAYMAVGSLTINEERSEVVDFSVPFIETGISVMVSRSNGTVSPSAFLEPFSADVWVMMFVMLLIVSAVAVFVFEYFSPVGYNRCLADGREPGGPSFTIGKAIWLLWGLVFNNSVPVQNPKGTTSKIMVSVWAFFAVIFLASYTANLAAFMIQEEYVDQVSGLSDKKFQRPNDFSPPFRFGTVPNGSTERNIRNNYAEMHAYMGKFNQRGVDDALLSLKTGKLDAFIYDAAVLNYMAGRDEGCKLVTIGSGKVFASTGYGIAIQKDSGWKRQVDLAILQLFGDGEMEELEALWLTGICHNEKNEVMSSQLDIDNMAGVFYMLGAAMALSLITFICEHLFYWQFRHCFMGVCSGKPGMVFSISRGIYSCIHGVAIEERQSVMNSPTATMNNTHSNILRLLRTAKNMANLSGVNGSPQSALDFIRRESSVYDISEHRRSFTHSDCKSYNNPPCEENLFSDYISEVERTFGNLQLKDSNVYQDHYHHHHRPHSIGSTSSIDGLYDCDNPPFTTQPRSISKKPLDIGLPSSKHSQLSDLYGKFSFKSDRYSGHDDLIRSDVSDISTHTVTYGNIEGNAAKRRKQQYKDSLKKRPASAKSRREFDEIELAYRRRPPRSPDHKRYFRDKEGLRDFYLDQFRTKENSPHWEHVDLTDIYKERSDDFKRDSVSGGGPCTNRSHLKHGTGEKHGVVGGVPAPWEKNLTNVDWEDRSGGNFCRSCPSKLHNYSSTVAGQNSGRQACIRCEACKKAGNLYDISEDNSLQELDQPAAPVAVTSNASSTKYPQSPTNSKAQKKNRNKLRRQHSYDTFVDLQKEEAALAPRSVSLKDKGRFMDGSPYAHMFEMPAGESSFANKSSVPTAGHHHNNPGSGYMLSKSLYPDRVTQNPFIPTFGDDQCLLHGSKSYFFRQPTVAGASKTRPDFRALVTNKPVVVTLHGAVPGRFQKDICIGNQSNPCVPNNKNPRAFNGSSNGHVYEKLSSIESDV
Experimental: RRNR2BB—Inhibition of Specific Binding to the Rat NR1/NR2B Receptor
Male Wistar rats (180 to 200 g) were killed by suffocation in a CO2 chamber for two minutes. Whole brains without cerebellum were removed and dissected on ice, placed into closed vials and stored at −70° C.
Membrane fractions were prepared and tested using standard techniques. At the time of the assay, 1 g of the brains were placed into 25 ml of 50 mM Tris/10 mM EDTA buffer, pH=7.1, (25 vol. per g of original tissue) and was homogenized for 30 sec at 20000 U/min with an Ultraturrax T25 (Jahnke & Kunkel, IKA-Labortechnik, Staufen, Germany). The homogenate was centrifuged at 4° C. for 10 min at 48000 g (OPTIMA L-70, Beckman, Palo Alto, Calif. 94304, USA). The supernatant was discarded and the pellet was homogenized on ice for 30 sec at 20000 U/min with an Ultraturrax and again centrifuged at 48000 g for 30 minutes at 4° C. The resultant pellet was resuspended in 25 ml of 50 mM Tris/10 mM EDTA buffer, homogenized for 30 sec with an Ultraturrax, aliquoted, frozen at −70° C. and stored until use
After thawing on the day of the assay, a 5 ml membrane aliquote was centrifuged at 48000 g for 30 min at 4° C. The pellet was resuspended in 5 ml of 5 mM Tris/1 mM EDTA buffer, pH=7.4, homogenized for 30 sec at 20000 U/min with an Ultraturrax and centrifuged at 48000 g for 30 min at 4° C. This step was repeated twice. The final pellet was homogenized in 5 ml of 5 mM Tris/mM EDTA buffer at 4° C. with an Ultraturrax and used for the Ifenprodil-binding assay.
Nonspecific binding was estimated in the presence of 10 M CP101.606. The samples were incubated for 60 min. at 4° C.
Binding was terminated by filtration of the incubated membrane preparations using Filtermat B (Pharmacia, Uppsala Sweden) and a Micro Cell Harvester (Skatron, Lier, Norway). The Filtermat B had been presoaked with 1% polyethylenimine and carefully washed with […] Tris/HCl-buffer pH=7.7 after the filtration to separate free and bound radioactivity.
For pipetting of the incubation mixture the robot Biomek2000 (Fa. Beckman) was used.
The IC50 values in the tables below were determined using the Hill-plot, 2-parameter-model.

Sequence of hERG-receptor (Q12809 whole entry): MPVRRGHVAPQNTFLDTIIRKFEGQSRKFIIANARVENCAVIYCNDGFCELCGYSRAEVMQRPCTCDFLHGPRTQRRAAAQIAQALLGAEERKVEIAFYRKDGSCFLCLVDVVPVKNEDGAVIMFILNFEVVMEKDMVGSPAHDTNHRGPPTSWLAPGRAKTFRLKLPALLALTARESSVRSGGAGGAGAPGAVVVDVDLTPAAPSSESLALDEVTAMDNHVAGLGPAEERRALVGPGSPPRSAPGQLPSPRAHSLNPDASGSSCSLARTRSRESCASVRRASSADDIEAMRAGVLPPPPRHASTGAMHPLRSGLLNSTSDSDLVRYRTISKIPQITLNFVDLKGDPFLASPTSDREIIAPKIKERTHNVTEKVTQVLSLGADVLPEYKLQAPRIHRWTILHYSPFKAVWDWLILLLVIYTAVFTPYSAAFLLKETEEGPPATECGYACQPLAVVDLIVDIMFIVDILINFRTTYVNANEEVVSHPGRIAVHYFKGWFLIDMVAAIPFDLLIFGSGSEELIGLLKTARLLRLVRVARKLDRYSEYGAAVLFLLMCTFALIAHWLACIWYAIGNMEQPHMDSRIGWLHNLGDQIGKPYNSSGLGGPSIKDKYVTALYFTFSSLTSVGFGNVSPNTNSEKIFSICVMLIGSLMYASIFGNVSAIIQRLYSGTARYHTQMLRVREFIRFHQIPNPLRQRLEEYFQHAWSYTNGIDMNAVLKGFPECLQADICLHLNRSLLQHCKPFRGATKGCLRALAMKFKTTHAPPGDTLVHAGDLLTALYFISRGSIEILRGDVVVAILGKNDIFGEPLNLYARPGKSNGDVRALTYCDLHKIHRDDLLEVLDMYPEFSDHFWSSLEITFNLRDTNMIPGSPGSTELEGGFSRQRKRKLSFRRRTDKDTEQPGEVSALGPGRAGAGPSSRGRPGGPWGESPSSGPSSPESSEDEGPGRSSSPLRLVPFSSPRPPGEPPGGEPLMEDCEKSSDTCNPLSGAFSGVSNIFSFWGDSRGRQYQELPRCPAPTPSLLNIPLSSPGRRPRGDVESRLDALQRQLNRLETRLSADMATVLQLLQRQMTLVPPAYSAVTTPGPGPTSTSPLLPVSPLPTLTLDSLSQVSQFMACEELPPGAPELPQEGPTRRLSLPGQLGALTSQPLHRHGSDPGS

Row | SMILES | IC50 (rat NR1/NR2B receptor) | IC50 (hERG-receptor)
1 | Clc1ccc(-n2cc(Cn3nc(C4CC4)nc3C3CC3)nn2)cc1 [Example 10, 1-(4-Chloro-phenyl)-4-(3,5-dicyclopropyl-[1,2,4]triazol-1-ylmethyl)-1-[1,2,3]triazole] | > 10 µM | 0.0039 µM
2 | Clc1ccc(-n2cc(Cn3ncnc3C3CCC3)nn2)cc1 [Example 11, 1-(4-Chloro-phenyl)-4-(5-cyclobutyl-[1,2,4]triazol-1-ylmethyl)-1H-[1,2,3]triazole] | > 1 µM | > 100 µM
3 | Cc1nc(C2CCC2)nn1Cc1cn(-c2ccc(Cl)cc2)nn1 [Example 22, 1-(4-Chloro-phenyl)-4-(3-cyclobutyl-5-methyl-[1,2,4]triazol-1-ylmethyl)-1H-[1,2,3]triazole] | > 10 µM | 
4 | Clc1ccc(-n2cc(Cn3ccnc3Cl)nn2)cc1 [Example 26, 4-(2-Chloro-imidazol-1-ylmethyl)-1-(4-chloro-phenyl)-1H-[1,2,3]triazole] |  | 12.1 µM
5 | CC(C)(C)c1nccn1Cc1cn(-c2ccc(Cl)cc2)nn1 [Example 30, 4-(2-tert-Butyl-imidazol-1-ylmethyl)-1-(4-chloro-phenyl)-1H-[1,2,3]triazole] |  | 3.58 µM
6 | CCCc1nccn1Cc1cn(-c2ccc(F)c(Cl)c2)nn1 [Example 43, 1-(3-Chloro-4-fluoro-phenyl)-4-(2-propyl-imidazol-1-ylmethyl)-1H-[1,2,3]triazole] |  | 2.72 µM
7 | Cc1nc(CO)n(Cc2cn(-c3ccccc3)nn2)n1 [Example 47, 4-(5-Hydroxymethyl-3-methyl-[1,2,4]triazol-1-ylmethyl)-1-phenyl-1H-[1,2,3]triazole] | > 10 µM | 
8 | Cc1nc(CO)nn1Cc1cn(-c2ccccc2)nn1 [Example 48, 4-(3-Hydroxymethyl-5-methyl-[1,2,4]triazol-1-ylmethyl)-1-phenyl-1H-[1,2,3]triazole] | > 10 µM | 
9 | Fc1cc(-n2cc(Cn3ccnc3C3CC3)nn2)ccc1Cl [Example 61, 1-(4-Chloro-3-fluoro-phenyl)-4-(2-cyclopropyl-imidazol-1-ylmethyl)-1H-[1,2,3]triazole] |  | 3.62 µM
10 | Cc1cc(-n2cc(Cn3ccnc3C3CC3)nn2)ccc1Cl [Example 65, 1-(4-Chloro-3-methyl-phenyl)-4-(2-cyclopropyl-imidazol-1-ylmethyl)-1H-[1,2,3]triazole] |  | 3.87 µM
11 | CC(C)c1nccn1Cc1cn(-c2cccc(OC(F)(F)F)c2)nn1 [Example 73, 4-(2-Isopropyl-imidazol-1-ylmethyl)-1-(3-trifluoromethoxy-phenyl)-1H-[1,2,3]triazole] |  | 13 µM
12 | CS(=O)(=O)c1cccc(-n2cc(Cn3ccnc3CCO)nn2)c1 [Example 79, 4-[2-(2-Hydroxy-ethyl)-imidazol-1-ylmethyl]-1-(3-methanesulfonyl-phenyl)-1H-[1,2,3]triazole] |  | > 100 µM
13 | CCCCc1nccn1Cc1cn(-c2ccc(F)c(C(F)F)c2)nn1 [Example 86, 1-(3-Difluoromethyl-4-fluoro-phenyl)-4-(2-butyl-imidazol-1-ylmethyl)-1H-[1,2,3]triazole] |  | 3.24 µM
14 | OCCc1nccn1Cc1cn(-c2ccc(Cl)c(OC(F)F)c2)nn1 [Example 98, 1-(4-Chloro-3-difluoromethoxy-phenyl)-4-[2-(2-hydroxy-ethyl)-imidazol-1-ylmethyl]-1H-[1,2,3]triazole] |  | 17.1 µM

Continued, in another order:

Row | IC50 (rat NR1/NR2B receptor) | SMILES | IC50 (hERG-receptor)
15 | > 10 µM | Cc1nc(C)n(Cc2cn(-c3ccc(Cl)cc3)nn2)n1 [Example 1, 1-(4-Chloro-phenyl)-4-(3,5-dimethyl-[1,2,4]triazol-1-ylmethyl)-1H-[1,2,3]triazole] | 419 µM
16 | > 1 µM | CCCc1ncnn1Cc1cn(-c2ccc(Cl)cc2)nn1 [Example 2, 1-(4-Chloro-phenyl)-4-(5-propyl-[1,2,4]triazol-1-ylmethyl)-1H-[1,2,3]triazole] | 0.032 µM
17 | > 10 µM | CCCc1ncn(Cc2cn(-c3ccc(Cl)cc3)nn2)n1 [Example 3, 1-(4-Chloro-phenyl)-4-(3-propyl-[1,2,4]triazol-1-ylmethyl)-1H-[1,2,3]triazole] | 0.305 µM
18 | > 10 µM | CC(C)c1ncn(Cc2cn(-c3ccc(Cl)cc3)nn2)n1 [Example 4, 1-(4-Chloro-phenyl)-4-(3-isopropyl-[1,2,4]triazol-1-ylmethyl)-1H-[1,2,3]triazole] | 
19 | > 10 µM | CCc1ncnn1Cc1cn(-c2ccc(Cl)cc2)nn1 [Example 5, 1-(4-Chloro-phenyl)-4-(5-ethyl-[1,2,4]triazol-1-ylmethyl)-1H-[1,2,3]triazole] | 194 µM
20 | > 10 µM | CCc1ncn(Cc2cn(-c3ccc(Cl)cc3)nn2)n1 [Example 6, 1-(4-Chloro-phenyl)-4-(3-ethyl-[1,2,4]triazol-1-ylmethyl)-1H-[1,2,3]triazole] | 54.9 µM
21 | > 10 µM | CC(C)c1ncnn1Cc1cn(-c2ccc(Cl)cc2)nn1 [Example 7, 1-(4-Chloro-phenyl)-4-(5-isopropyl-[1,2,4]triazol-1-ylmethyl)-1H-[1,2,3]triazole] | > 100 µM
22 | > 10 µM | Cc1ncn(Cc2cn(-c3ccc(Cl)cc3)nn2)n1 [Example 9, 1-(4-Chloro-phenyl)-4-(3-methyl-[1,2,4]triazol-1-ylmethyl)-1H-[1,2,3]triazole] | 46.9 µM
23 | > 10 µM | Clc1ccc(-n2cc(Cn3cnc(C4CCC4)n3)nn2)cc1 [Example 12, 1-(4-Chloro-phenyl)-4-(3-cyclobutyl-[1,2,4]triazol-1-ylmethyl)-1H-[1,2,3]triazole] | 11.8 µM
24 | > 10 µM | Clc1ccc(-n2cc(Cn3cnc(C4CC4)n3)nn2)cc1 [Example 13, 1-(4-Chloro-phenyl)-4-(3-cyclopropyl-[1,2,4]triazol-1-ylmethyl)-1H-[1,2,3]triazole] | 45.1 µM
25 | > 10 µM | Clc1ccc(-n2cc(Cn3cnc(C4CCCC4)n3)nn2)cc1 [Example 15, 1-(4-Chloro-phenyl)-4-(3-cyclopentyl-[1,2,4]triazol-1-ylmethyl)-1H-[1,2,3]triazole] | 87.9 µM
26 | > 10 µM | Clc1ccc(-n2cc(Cn3ncnc3C3CC3)nn2)cc1 [Example 16, 1-(4-Chloro-phenyl)-4-(5-cyclopropyl-[1,2,4]triazol-1-ylmethyl)-1H-[1,2,3]triazole] | > 100 µM
27 | > 10 µM | FC(F)(F)c1ncn(Cc2cn(-c3ccc(Cl)cc3)nn2)n1 [Example 17, 1-(4-Chloro-phenyl)-4-(3-trifluoromethyl-[1,2,4]triazol-1-ylmethyl)-1H-[1,2,3]triazole] | 25.6 µM
28 | > 10 µM | CC(C)(C)c1ncnn1Cc1cn(-c2ccc(Cl)cc2)nn1 [Example 19, 4-(5-tert-Butyl-[1,2,4]triazol-1-ylmethyl)-1-(4-chloro-phenyl)-1H-[1,2,3]triazole] | 33.8 µM
29 | > 10 µM | CC(C)(C)c1ncn(Cc2cn(-c3ccc(Cl)cc3)nn2)n1 [Example 20, 4-(3-tert-Butyl-[1,2,4]triazol-1-ylmethyl)-1-(4-chloro-phenyl)-1H-[1,2,3]triazole] | 35.6 µM
